The values that follow come from patent US20250255298A1, “PENETRATION PROMOTER” (IBIDEN CO., LTD., priority 2023, published 2025).

Tested on in the first data set: not given
Assay: not given
Particulars: indicated as common logarithmic value Log Kow or Log P; cited from earlier work.
`Nc1ncnc2nc[nH]c12` [adenine]: the octanol/water partition coefficient is −0.1.

`Nc1ncnc2c1ncn2[C@@H]1O[C@H](COP(=O)(O)O)[C@@H](O)[C@H]1O` [adenosine monophosphate]: the octanol/water partition coefficient is −3.1. Take `Nc1ncnc2c1ncn2[C@@H]1O[C@H](CO)[C@@H](O)[C@H]1O` [adenosine]: the octanol/water partition coefficient is listed as −1.2. Turning to `C[C@H](N)C(=O)O` [alanine], the octanol/water partition coefficient was −2.85. Turning to `N[C@@H](CS)C(=O)O` [cysteine], the octanol/water partition coefficient was −2.49. Take `Nc1cc[nH]c(=O)n1` [cytosine]: the octanol/water partition coefficient was −1.73. For `N[C@@H](CCC(=O)O)C(=O)O` [glutamic acid], the octanol/water partition coefficient is on record as −3.69.

Consider `NC(=O)CC[C@H](N)C(=O)O` [glutamine], for which the octanol/water partition coefficient was −3.64.

For the compound `Nc1nc2nc[nH]c2c(=O)[nH]1` [guanine], the octanol/water partition coefficient is reported as −0.91. As for `Nc1nc2c(ncn2[C@@H]2O[C@H](CO)[C@@H](O)[C@H]2O)c(=O)[nH]1` [guanosine], the octanol/water partition coefficient is −1.9. Take `N[C@@H](Cc1c[nH]cn1)C(=O)O` [histidine]: the octanol/water partition coefficient is reported as −3.32. On to `CC[C@H](C)[C@H](N)C(=O)O` [isoleucine], for which the octanol/water partition coefficient is listed as −1.70. Turning to `CC(C)C[C@H](N)C(=O)O` [leucine], the octanol/water partition coefficient is −1.52. As for `NCCCC[C@H](N)C(=O)O` [lysine], the octanol/water partition coefficient is −3.05. On to `CSCC[C@H](N)C(=O)O` [methionine], for which the octanol/water partition coefficient is recorded as −1.87. Take `CCCCCCCC/C=C\CCCCCCCC(=O)O` [oleic acid]: the octanol/water partition coefficient was 7.73. As for `N[C@@H](Cc1ccccc1)C(=O)O` [phenylalanine], the octanol/water partition coefficient is on record as −1.38. Take `O=C(O)[C@@H]1CCCN1` [proline]: the octanol/water partition coefficient is listed as −2.54. Consider `N[C@@H](CO)C(=O)O` [serine], for which the octanol/water partition coefficient is −3.07. For the compound `Cc1cn([C@H]2C[C@H](O)[C@@H](COP(=O)(O)O)O2)c(=O)[nH]c1=O` [thymidine monophosphate], the octanol/water partition coefficient is on record as −2.8.

For the compound `Cc1cn([C@H]2C[C@H](O)[C@@H](CO)O2)c(=O)[nH]c1=O` [thymidine], the octanol/water partition coefficient is on record as −0.93. Take `Cc1c[nH]c(=O)[nH]c1=O` [thymine]: the octanol/water partition coefficient was −0.62.

Consider `N[C@@H](Cc1c[nH]c2ccccc12)C(=O)O` [tryptophan], for which the octanol/water partition coefficient is −1.05.

Take `O=c1ccn([C@@H]2O[C@H](CO)[C@@H](O)[C@H]2O)c(=O)[nH]1` [uridine]: the octanol/water partition coefficient is −1.98.

Turning to `CC(C)[C@H](N)C(=O)O` [valine], the octanol/water partition coefficient was −2.26.

Another data set deals with soybean (variety: Fukuyutaka) leaves. Description: Test on penetrability in soybean (absorbent cotton with test penetrant on leaf, LC-MS/MS of leaf extract). Particulars: penetration promoter solutions of Examples 1 and 2. On the procedure:
(§1) A solution obtained by adding 40 μL (20 mg) of pine oil (manufactured by ease Inc.) to 2000 mL of each of the penetration promoter solutions 1 to 8 was used as a terpene test penetrant.
(§2) A liquid obtained by dissolving 450 mg of ground nucleic acid particles (manufactured by Kenkououendan Inc.) in 2000 mL of each of the penetration promoter solutions 1 to 8 was used as a nucleic acid test penetrant.
A liquid obtained by dispersing 100 mg of soybean-derived lecithin (manufactured by FUJIFILM Wako Pure Chemical Corporation) in 2000 mL of each of the penetration promoter solutions 1 to 8 was used as a phospholipid test penetrant. • Penetrability test of each organic substance using test penetrant
Four soybean (variety: Fukuyutaka) seeds were seeded, per pot, in a No. 3 pot containing Seeding Soil for Vegetables and Flowers (manufactured by Takii Co., Ltd.). […]
(§3) The analysis sample was analyzed for the amount of terpene using an LC-MS/MS apparatus (LC part: DIONEX Ultimate3000, MS/MS part: Q Exactive Focus: manufactured by Thermo Fisher Scientific K.K.) under the following conditions. […] Quantification was performed from the MS-peak area value of α-pinene contained in pine oil (manufactured by ease Inc.), and the amounts of terpene penetrated into the intralobar tissue by the penetration promoter solutions 1 to 8 (Examples 1 and 2 and Comparative Examples 1 to 6) were compared. […]
`CCCCCCCC/C=C\CCCCCCCC(=O)O` [oleic acid]: the “penetrability with oleic acid as compared with terpene” value is reported as “slightly decreased”.

A further data set relates to Rice (variety: Nipponbare) leaves. In words: Test on penetrability in rice (cut leaves soaked in test penetrant, LC-MS/MS of leaf extract). Particulars: penetration promoter solutions of Examples 1 and 2. On the procedure: as §1, §2
A liquid obtained by dispersing 100 mg of soybean-derived lecithin (manufactured by FUJIFILM Wako Pure Chemical Corporation) in 2000 mL of each of the penetration promoter solutions 1 to 8 was used as a phospholipid test penetrant. • Penetrability test of each organic substance using test penetrant […]
as §3
Consider `CCCCCCCC/C=C\CCCCCCCC(=O)O` [oleic acid], for which the “penetrability with oleic acid as compared with terpene” value was “slightly decreased”.
